Source: ChEMBL document CHEMBL6103537 (J Med Chem, 2025)

Tests used:
[1] = molecular target: T1, Signal transducer and activator of transcription 6 (Homo sapiens, UniProt P42226); assay: Binding affinity to N-terminal his6-tgged STAT6 (unknown origin) (113 to 658 residues) assessed as inhibition constant incubated for 1 hr by fluorescence polarization assay
T1 sequence (P42226 whole entry): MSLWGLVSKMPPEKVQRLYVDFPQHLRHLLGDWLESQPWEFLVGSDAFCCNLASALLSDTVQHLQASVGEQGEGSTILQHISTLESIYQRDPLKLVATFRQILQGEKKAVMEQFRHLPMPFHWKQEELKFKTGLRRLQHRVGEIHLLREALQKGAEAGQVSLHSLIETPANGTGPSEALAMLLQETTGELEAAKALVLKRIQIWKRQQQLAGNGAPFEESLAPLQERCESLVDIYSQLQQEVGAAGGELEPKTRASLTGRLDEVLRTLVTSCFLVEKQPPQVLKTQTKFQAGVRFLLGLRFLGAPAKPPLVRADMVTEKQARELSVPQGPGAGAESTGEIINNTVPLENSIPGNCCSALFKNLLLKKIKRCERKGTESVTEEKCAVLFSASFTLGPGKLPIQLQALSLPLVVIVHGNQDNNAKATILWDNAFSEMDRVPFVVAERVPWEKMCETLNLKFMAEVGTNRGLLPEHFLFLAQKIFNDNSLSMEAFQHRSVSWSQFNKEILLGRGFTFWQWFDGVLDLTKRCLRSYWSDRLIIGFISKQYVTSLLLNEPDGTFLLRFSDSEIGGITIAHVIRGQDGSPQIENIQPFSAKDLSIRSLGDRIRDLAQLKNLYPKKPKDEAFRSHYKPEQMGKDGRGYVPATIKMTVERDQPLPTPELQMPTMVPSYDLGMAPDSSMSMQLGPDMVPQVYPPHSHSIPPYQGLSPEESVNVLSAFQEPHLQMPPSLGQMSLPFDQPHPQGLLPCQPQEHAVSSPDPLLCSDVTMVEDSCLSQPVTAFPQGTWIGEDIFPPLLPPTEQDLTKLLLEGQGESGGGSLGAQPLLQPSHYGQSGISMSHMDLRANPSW

[2] = molecular target: T2, Signal transducer and activator of transcription 5B (Homo sapiens, UniProt P51692); assay: Binding affinity to STAT5B (unknown origin) assessed as inhibition constant incubated for 1 hr by fluorescence polarization assay
T2 sequence (P51692 whole entry): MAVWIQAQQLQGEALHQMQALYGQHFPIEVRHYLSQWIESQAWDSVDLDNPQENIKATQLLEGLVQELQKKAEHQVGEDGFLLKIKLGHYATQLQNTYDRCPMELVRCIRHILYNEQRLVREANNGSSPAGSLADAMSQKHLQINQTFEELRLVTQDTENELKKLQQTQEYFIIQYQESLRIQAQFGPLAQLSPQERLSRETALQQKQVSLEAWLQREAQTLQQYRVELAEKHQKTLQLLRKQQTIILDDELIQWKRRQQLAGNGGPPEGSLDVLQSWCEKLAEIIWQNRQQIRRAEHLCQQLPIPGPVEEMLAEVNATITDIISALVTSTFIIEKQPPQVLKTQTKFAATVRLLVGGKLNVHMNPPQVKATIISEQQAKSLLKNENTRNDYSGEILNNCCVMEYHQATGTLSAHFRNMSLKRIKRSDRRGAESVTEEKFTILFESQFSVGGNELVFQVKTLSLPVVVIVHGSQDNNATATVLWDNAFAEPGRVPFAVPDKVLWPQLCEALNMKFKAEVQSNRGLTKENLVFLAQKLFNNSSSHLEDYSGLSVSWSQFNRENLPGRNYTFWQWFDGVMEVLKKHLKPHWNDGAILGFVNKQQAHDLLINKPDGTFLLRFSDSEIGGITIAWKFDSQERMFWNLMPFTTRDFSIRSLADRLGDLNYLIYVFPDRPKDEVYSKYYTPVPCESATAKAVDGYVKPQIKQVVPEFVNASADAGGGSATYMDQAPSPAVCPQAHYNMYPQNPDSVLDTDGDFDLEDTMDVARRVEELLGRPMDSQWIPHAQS

[3] = molecular target: T3, Protein cereblon/Signal transducer and activator of transcription 6 (Homo sapiens, UniProt P42226+Q96SW2); assay: PROTAC activity at STAT6/CRBN in human MV4-11 cells assessed as reduction in STAT6 level incubated for 12 hrs by Western blot analysis; assay type: cell-based
Target sequence in this assay (Q96SW2 whole entry, one chain of several): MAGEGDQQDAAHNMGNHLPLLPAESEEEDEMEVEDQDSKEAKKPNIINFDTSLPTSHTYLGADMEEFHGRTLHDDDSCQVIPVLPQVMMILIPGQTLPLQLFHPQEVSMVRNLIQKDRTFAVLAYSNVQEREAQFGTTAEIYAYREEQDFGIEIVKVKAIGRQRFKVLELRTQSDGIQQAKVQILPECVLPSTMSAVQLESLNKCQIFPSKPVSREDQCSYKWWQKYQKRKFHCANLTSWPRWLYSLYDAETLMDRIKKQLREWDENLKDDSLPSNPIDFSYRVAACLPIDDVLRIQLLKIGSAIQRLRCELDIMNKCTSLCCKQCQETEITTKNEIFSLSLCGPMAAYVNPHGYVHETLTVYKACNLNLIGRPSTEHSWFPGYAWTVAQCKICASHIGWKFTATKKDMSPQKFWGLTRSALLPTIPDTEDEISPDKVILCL

[4] = molecular target: T3, Protein cereblon/Signal transducer and activator of transcription 6; assay: PROTAC activity at STAT6/CRBN in human MV4-11 cells assessed as reduction in STAT6 level at 5 uM incubated for 12 hrs by Western blot analysis relative to control; assay type: cell-based
Target sequence in this assay (Q96SW2 whole entry partner, one chain of several): as the sequence (Q96SW2 whole entry, one chain of several) above

Row | SMILES | Ki [1] [nM] | also measured
1 | CC(C)(C)[C@H](NC(=O)c1cc2cc(C(F)(F)P(=O)(O)O)ccc2s1)C(=O)N1CCC[C@H]1C(=O)N1Cc2ccccc2C1 | – | Ki [2]: > 5000 nM
2 | CC(C)(C)[C@H](NC(=O)c1cc2cc(C(F)(F)P(=O)(O)O)ccc2s1)C(=O)N1C[C@@H](NC(=O)CCCCCCC#Cc2cccc3c2CN(C2CCC(=O)NC2=O)C3=O)C[C@H]1C(=O)N1CCO[C@H](c2ccccc2)C1 (stereo not given in full) | – | DC50 [3]: 250 nM; Emax [4]: > 95%
3 | CC(=O)N[C@H]1C[C@@H](C(=O)N2CCO[C@H](c3ccccc3)C2)N(C(=O)[C@@H](NC(=O)c2cc3cc(C(F)(F)P(=O)(O)O)ccc3s2)C(C)(C)C)C1 | – | Ki [2]: 590 nM
4 | CC(C)(C)[C@H](NC(=O)c1cc2cc(C(F)(F)P(=O)(O)O)ccc2s1)C(=O)N1Cc2ccccc2[C@H]1C(=O)N1CCO[C@H](c2ccccc2)C1 | 33 | –
5 | CC(C)(C)[C@H](NC(=O)c1cc2cc(C(F)(F)P(=O)(O)O)ccc2s1)C(=O)N1Cc2ccccc2C[C@H]1C(=O)N1CCO[C@H](c2ccccc2)C1 | 83 | –
6 | CC(C)(C)[C@H](NC(=O)c1cc2cc(C(F)(F)P(=O)(O)O)ccc2s1)C(=O)N1C[C@@H](OCCCCCCNc2cccc3c2CN(C2CCC(=O)NC2=O)C3=O)C[C@H]1C(=O)N1CCO[C@H](c2ccccc2)C1 (stereo not given in full) | – | DC50 [3]: 60 nM; Emax [4]: > 95%
7 | C/C(=C\C(=O)N[C@H](C(=O)N1CCC[C@H]1C(=O)N1CCc2ccccc2C1)C(C)(C)C)c1ccc(C(F)(F)P(=O)(O)O)cc1 | 3500 | –
8 | CC(C)(C)[C@H](NC(=O)c1cc2cc(C(F)(F)P(=O)(O)O)ccc2s1)C(=O)N1C[C@@H](NC(=O)CCCCC#Cc2cccc3c2CN(C2CCC(=O)NC2=O)C3=O)C[C@H]1C(=O)N1CCO[C@H](c2ccccc2)C1 (stereo not given in full) | – | DC50 [3]: 120 nM; Emax [4]: > 95%
9 | O=C(N[C@@H](Cc1ccc2ccccc2c1)C(=O)N1CCC[C@H]1C(=O)N1CCO[C@H](c2ccccc2)C1)c1cc2cc(C(F)(F)P(=O)(O)O)ccc2s1 | 250 | –
10 | CC(C)(C)c1ccc(C[C@H](NC(=O)c2cc3cc(C(F)(F)P(=O)(O)O)ccc3s2)C(=O)N2CCC[C@H]2C(=O)N2CCO[C@H](c3ccccc3)C2)cc1 | 160 | –
11 | CC(C)(C)[C@H](NC(=O)c1cc2cc(C(F)(F)P(=O)(O)O)ccc2s1)C(=O)N1C[C@@H](NC(=O)CCCC#Cc2cccc3c2CN(C2CCC(=O)NC2=O)C3=O)C[C@H]1C(=O)N1CCO[C@H](c2ccccc2)C1 (stereo not given in full) | – | DC50 [3]: 260 nM; Emax [4]: > 95%
12 | CC(C)(C)[C@H](NC(=O)c1cc2cc(C(F)(F)P(=O)(O)O)ccc2s1)C(=O)N1C[C@@H](NC(=O)CCCCCC#Cc2cccc3c2CN(C2CCC(=O)NC2=O)C3=O)C[C@H]1C(=O)N1CCO[C@H](c2ccccc2)C1 (stereo not given in full) | – | DC50 [3]: 60 nM; Emax [4]: > 95%
13 | O=C(N[C@@H](Cc1ccncc1)C(=O)N1CCC[C@H]1C(=O)N1CCO[C@H](c2ccccc2)C1)c1cc2cc(C(F)(F)P(=O)(O)O)ccc2s1 | 450 | –
14 | O=C(N[C@@H](Cc1ccc(Br)cc1)C(=O)N1CCC[C@H]1C(=O)N1CCO[C@H](c2ccccc2)C1)c1cc2cc(C(F)(F)P(=O)(O)O)ccc2s1 | 170 | –
15 | O=C(N[C@@H](Cc1ccccc1)C(=O)N1CCC[C@H]1C(=O)N1CCO[C@H](c2ccccc2)C1)c1cc2cc(C(F)(F)P(=O)(O)O)ccc2s1 | 340 | –
16 | CC(C)(C)[C@H](NC(=O)c1cc2cc(C(F)(F)P(=O)(O)O)ccc2s1)C(=O)N1C[C@@H](OCCCCCCCC#Cc2cccc3c2CN(C2CCC(=O)NC2=O)C3=O)C[C@H]1C(=O)N1CCO[C@H](c2ccccc2)C1 (stereo not given in full) | – | DC50 [3]: 60 nM; Emax [4]: > 95%
17 | O=C(N[C@@H](CC1CCNCC1)C(=O)N1CCC[C@H]1C(=O)N1CCO[C@H](c2ccccc2)C1)c1cc2cc(C(F)(F)P(=O)(O)O)ccc2s1 | 180 | –
18 | CC(C)(C)[C@H](NC(=O)c1cc2cc(C(F)(F)P(=O)(O)O)ccc2s1)C(=O)N1C[C@H](OCCCCCC#Cc2cccc3c2CN(C2CCC(=O)NC2=O)C3=O)C[C@H]1C(=O)N1CCO[C@H](c2ccccc2)C1 (stereo not given in full) | – | DC50 [3]: 130 nM; Emax [4]: > 95%
19 | CC(C)(C)[C@H](NC(=O)c1cc2cc(C(F)(F)P(=O)(O)O)ccc2s1)C(=O)N1C[C@@H](OCCCCCCC#Cc2cccc3c2CN(C2CCC(=O)NC2=O)C3=O)C[C@H]1C(=O)N1CCO[C@H](c2ccccc2)C1 (stereo not given in full) | – | DC50 [3]: 20 nM; Emax [4]: > 95%
20 | CC(C)(C)[C@H](NC(=O)c1cc2cc(C(F)(F)P(=O)(O)O)ccc2s1)C(=O)N1C[C@@H](OCCCCC#Cc2cccc3c2CN(C2CCC(=O)NC2=O)C3=O)C[C@H]1C(=O)N1CCO[C@H](c2ccccc2)C1 (stereo not given in full) | – | DC50 [3]: 50 nM; Emax [4]: > 95%
21 | COc1ccc(C[C@H](NC(=O)c2cc3cc(C(F)(F)P(=O)(O)O)ccc3s2)C(=O)N2CCC[C@H]2C(=O)N2CCO[C@H](c3ccccc3)C2)cc1 | 210 | –
22 | CC(C)(C)[C@H](NC(=O)c1cc2cc(C(F)(F)P(=O)(O)O)ccc2s1)C(=O)N1C[C@@H](NC(=O)CCCCCC#Cc2ccc3c(c2)CN(C2CCC(=O)NC2=O)C3=O)C[C@H]1C(=O)N1CCO[C@H](c2ccccc2)C1 (stereo not given in full) | – | DC50 [3]: 200 nM; Emax [4]: > 90%

Now from value to molecule, other results behind:

Row | Ki [1] [nM] | SMILES | also measured
23 | 160 | CC(C)(C)[C@H](NC(=O)c1cc2cc(C(F)(F)P(=O)(O)O)ccc2s1)C(=O)N1CCCC[C@H]1C(=O)N1CCC[C@H](c2ccccc2)C1 | –
24 | 42 | CC(C)(C)[C@H](NC(=O)c1cc2cc(C(F)(F)P(=O)(O)O)ccc2s1)C(=O)N1Cc2ccccc2[C@H]1C(=O)N1CCC[C@H](c2ccccc2)C1 | –
25 | 120 | CC(C)(O)[C@H](NC(=O)c1cc2cc(C(F)(F)P(=O)(O)O)ccc2s1)C(=O)N1CCC[C@H]1C(=O)N1CCO[C@H](c2ccccc2)C1 | –
26 | 190 | CC(C)(C)[C@H](NC(=O)c1cc2cc(C(F)(F)P(=O)(O)O)ccc2s1)C(=O)N1Cc2ccccc2C[C@H]1C(=O)N1CCC[C@H](c2ccccc2)C1 | –
27 | 110 | CC(C)(C)[C@H](NC(=O)c1cc2cc(C(F)(F)P(=O)(O)O)ccc2s1)C(=O)N1CCCC[C@H]1C(=O)N1CCO[C@H](c2ccccc2)C1 | –
28 | 6 | CO[C@H]1C[C@@H](C(=O)N2CCO[C@H](c3ccccc3)C2)N(C(=O)[C@@H](NC(=O)c2cc3cc(C(F)(F)P(=O)(O)O)ccc3s2)C(C)(C)C)C1 | –
29 | 260 | O=C(N[C@H](C(=O)N1CCC[C@H]1C(=O)N1CCO[C@H](c2ccccc2)C1)C1CCNCC1)c1cc2cc(C(F)(F)P(=O)(O)O)ccc2s1 | –
30 | 90 | O=C(N[C@H](C(=O)N1CCC[C@H]1C(=O)N1CCO[C@H](c2ccccc2)C1)C1CCCCC1)c1cc2cc(C(F)(F)P(=O)(O)O)ccc2s1 | –
31 | 120 | O=C(N[C@H](C(=O)N1CCC[C@H]1C(=O)N1CCO[C@H](c2ccccc2)C1)C1CC1)c1cc2cc(C(F)(F)P(=O)(O)O)ccc2s1 | –
32 | 250 | CN1CCC(C[C@H](NC(=O)c2cc3cc(C(F)(F)P(=O)(O)O)ccc3s2)C(=O)N2CCC[C@H]2C(=O)N2CCO[C@H](c3ccccc3)C2)CC1 | –
33 | 160 | CC[C@H](NC(=O)c1cc2cc(C(F)(F)P(=O)(O)O)ccc2s1)C(=O)N1CCC[C@H]1C(=O)N1CCO[C@H](c2ccccc2)C1 | –
34 | 120 | CC(C)(C)[C@H](NC(=O)c1cc2cc(C(F)(F)P(=O)(O)O)ccc2s1)C(=O)N1CCCCC[C@H]1C(=O)N1CCO[C@H](c2ccccc2)C1 | –
35 | 200 | CC(C)(C)[C@H](NC(=O)c1cc2cc(C(F)(F)P(=O)(O)O)ccc2s1)C(=O)N1CCCCC[C@H]1C(=O)N1CCC[C@H](c2ccccc2)C1 | –
